In one experiment the target is human PDHK2 (12-407) (Homo sapiens (Human), UniProt Q15119). Description: Isothermal titration calorimetry (ITC). The note with it: 30° C., pH 7.5; read-out: Binding (ITC) KD. The method, then: Isothermal Titration Calorimetry
ITC measurements were performed with a VP-ITC micro calorimeter (Microcal, LLC/GE Healthcare Bio-Sciences AB, Uppsala, Sweden). In general titrations were performed by titrating the protein (50 μM) to the test compound (5 μM) in 12 μl injections. All binding experiments were carried out at 30° C. In general the test compounds were diluted form DMSO stock solutions into the measurement buffer with a maximum final concentration of 1% DMSO. The measurement buffer was 20 mM HEPES, 135 mM KCl, 1 mM TCEP, 2 mM MgCl2, 15 mM NaH2PO4, pH 7.5. The human PDHK2 (12-407) was produced in E. coli as his-tagged protein and purified by affinity chromatography. The tag was removed by side specific proteolysis. Before titration the protein buffer was changed to the measurement buffer containing the same DMSO concentration as the test compound dilution. ITC data analysis was performed using Origin 7 calorimetry software from the same supplier. For most measurements a binding model of one binding site was assumed. According to the applied mathematical model it is possible to calculate the binding constant (KA), the observed binding enthalpy (ΔH^obs) as well as the stoichiometry (N) of the formed complex. Preceding analysis the raw data was corrected for the heats of dilution by extrapolating from the saturation value from the end of titration. In order to allow for direct comparison between the respective experimental series and protein preparations the protein concentration was corrected by referencing titrations to a well behaved standard inhibitor. The apparent stoichiometry values defined the fraction of binding competent protein and compensated for relative errors in protein concentration measurements. This corrected protein concentration was used to set up ITC experiment series with test compounds. Any deviations from ideal 1:1 stoichiometry observed here were attributed to errors in compound concentration. This nominal compound concentration was corrected as well to achieve 1:1 stoichiometry in the fit.

The test system of experiment [1] is PDH-E1alpha (pSer300) in HEK293T cells. Description: Cellular immunofluorescence assay (Anti-PDH-E1alpha (pSer300)) in HEK293T cells. It counts as cell-based. Particulars: Homo sapiens, HEK-293T, 5 hours incubation, read-out: IC50 (cell data). The method, then:
Cellular Assay for Determination of Compound Activities
Compound activities were determined in a cellular immunofluorescence assay.
Human HEK293T cells were seeded into black 384-well plates with clear bottom and grown overnight.
Next day, test compounds were added to the wells and the plates incubated for 5 hours. Following this, cells were fixed with formaldehyde, permeabilised and blocked. The primary antibody, Anti-PDH-E1alpha (pSer300), AP1064 (Merck Millipore) was added and incubated overnight in the plate wells. Next, cells were washed and the secondary antibody, Alexa Fluor 488, goat anti-rabbit ab (A-11008, Invitrogen) was added together with Hoechst 33258 (H3569, Invitrogen) and incubated for 1 hour in the plate wells. Finally, cells were washed and the plates were measured on the laser scanning cytometer acumen hci (TTpLabtech).
The raw data were normalized against a pharmacological inhibitor control and dose response curves were generated by plotting the percent effect values using the software package Genedata screener (Genedata).

A further experiment deals with PDHK2 (Homo sapiens (Human), UniProt Q15119). Kind of experiment: Biochemical activity testing of PDHK2: PDC inactivation assay. Particulars: human rec PDHK2, 5 μM ATP, read-out: IC50 PDHK2 (enzyme assay). The source says: Biochemical Activity Testing of PDHK2: PDC Inactivation Assay
The biochemical activity assay for PDHK2 is based on the inactivation of PDC through phosphorylation by PDHK2. The assay is run in two steps: the enzymatic PDHK2 reaction in which isolated PDC is phosphorylated by PDHK2 with ATP as co-substrate and the PDC activity assay in which pyruvate and NAD are converted to acetyl-CoA and NADH. The PDC activity correlates to the increase in NADH and thereby is detectable directly via the increasing fluorescence signal (Exc 340 nm, Em 450 nm). Inhibition of PDHK2 results in a lower phosphorylation status and thereby a less decrease in activity of PDC and a stronger increase in NADH fluorescence signal.
The PDC inactivation assay is performed in Greiner 384-well microtiter plates and is used for high throughput screen. 4 μl of PDHK2 (human, rec, Carna Bioscience, 10 ng/μl-137 nM final concentration) and PDC (isolated from porcine heart, Sigma-Aldrich, 20 mU/ml final concentration) are incubated in the absence or presence of the test compound (10 dilution concentrations) for 30 min at room temperature in kinase buffer (15 mM potassium phosphate buffer, pH 7.0, 60 mM KCl, 1.5 mM DTT, 2.5 mM MgCl2, 0.0125% (w/v) BSA, 0.125% Pluronic F-68). The kinase reaction is started by the addition of 4 μl ATP substrate solution (fc 5 μM in kinase buffer). After 30 min incubation at 37° C. 40 μl of PDC reaction solution (100 mM Tris/HCl, pH 7.8, 0.5 mM EDTA, 1 mM MgCl2, 50 mM NaF, 0.25 mM Coenzyme A, 5 mM pyruvate, 1 mM NAD, 5 mM DTT, 1 mM thiamine pyrophosphate) is added. The first fluorescence measurement is performed on a Perkin Elmer Envision (Exc 340 nm, Em 450 nm). The reaction is incubated for 45 min at room temperature. Afterwards a second fluorescence measurement is performed and the PDC activity is calculated by the difference between both measurements. As full value for the PDHK2 assay the inhibitor-free PDHK2 reaction is used. The pharmacological zero value used is DCA (Sigma-Aldrich) in a final concentration of 3 mM. The inhibitory values (IC50) were determined using either the program Symyx Assay Explorer® or Condosseo® from GeneData.

For orientation: Kd means the constant that tells how readily two partners part at equilibrium. One may read the IC50 as the midpoint of a concentration-inhibition curve. For the compound `Cc1ccc(C(=O)N(C)[C@H]2CCN(C(=O)[C@@](C)(O)C(F)(F)F)C[C@H]2C)c(F)c1` [Compound A27, 2-Fluoro-N,4-dimethyl-N-[(3R,4S)-3-methyl-1-[(2R)-3,3,3-trifluoro-2-hydroxy-2-methylpropanoyl]piperidin-4-yl]benzamide], the equilibrium dissociation constant (Kd) at human PDHK2 (12-407) was found to be 13 nM. In addition, the IC50 in experiment [1] came to 9.3 nM; on PDHK2, 300 nM.

For the compound `C[C@@H]1CN(C(=O)[C@@](C)(O)C(F)(F)F)CC[C@@H]1N(C)C(=O)c1ccc(F)cc1` [Compound A29, 4-Fluoro-N-methyl-N-[(3R,4S)-3-methyl-1-[(2R)-3,3,3-trifluoro-2-hydroxy-2-methylpropanoyl]piperidin-4-yl]benzamide], the dissociation constant (Kd) on human PDHK2 (12-407) stood at 38 nM. Besides, the figures for the IC50 (in experiment [1]; on PDHK2) were 290 nM and 250 nM, respectively.

For `C[C@@H]1CN(C(=O)[C@@](C)(O)C(F)(F)F)CC[C@@H]1N(C)C(=O)c1ccccc1` [Compound A32, N-Methyl-N-[(3R,4S)-3-methyl-1-[(2R)-3,3,3-trifluoro-2-hydroxy-2-methylpropanoyl]piperidin-4-yl]benzamide], at human PDHK2 (12-407), the Kd was 46 nM. The IC50 is 140 nM in experiment [1] and 710 nM on PDHK2.

As to `COc1ccc(C(=O)N(C)[C@H]2CCN(C(=O)[C@@](C)(O)C(F)(F)F)C[C@H]2C)cc1` [Compound A35, 4-Methoxy-N-methyl-N-[(3R,4S)-3-methyl-1-[(2R)-3,3,3-trifluoro-2-hydroxy-2-methylpropanoyl]piperidin-4-yl]benzamide], the Kd at human PDHK2 (12-407) worked out at 37 nM. Also, the half-inhibitory concentration (IC50) in experiment [1] came to 33 nM; on PDHK2 it was 310 nM.

For the compound `C[C@@H]1CN(C(=O)[C@@](C)(O)C(F)(F)F)CC[C@@H]1N(C)C(=O)c1ccc(F)cc1F` [Compound A38, 2,4-Difluoro-N-methyl-N-[(3R,4S)-3-methyl-1-[(2R)-3,3,3-trifluoro-2-hydroxy-2-methylpropanoyl]piperidin-4-yl]benzamide], on human PDHK2 (12-407), the Kd came to 19 nM. Moreover, the IC50 came out at 110 nM in experiment [1] and 180 nM at PDHK2.

Regarding `C[C@@H]1CN(C(=O)[C@@](C)(O)C(F)(F)F)CC[C@@H]1N(C)C(=O)c1ncc(F)cc1F` [Compound A41, 3,5-Difluoro-N-methyl-N-[(3R,4S)-3-methyl-1-[(2R)-3,3,3-trifluoro-2-hydroxy-2-methylpropanoyl]piperidin-4-yl]pyridine-2-carboxamide], the equilibrium dissociation constant (Kd) on human PDHK2 (12-407) was 66 nM. Moreover, the IC50 in experiment [1] stood at 180 nM; at PDHK2, 240 nM.

As to `C[C@@H]1CN(C(=O)[C@@](C)(O)C(F)(F)F)CC[C@@H]1N(C)C(=O)c1ccc(C#N)cc1` [Compound A44, 4-Cyano-N-methyl-N-[(3R,4S)-3-methyl-1-[(2R)-3,3,3-trifluoro-2-hydroxy-2-methylpropanoyl]piperidin-4-yl]benzamide], the Kd on human PDHK2 (12-407) stood at 53 nM. For the same compound, the IC50 was found to be 350 nM in experiment [1] and 300 nM at PDHK2.

In the case of `C[C@@H]1CN(C(=O)[C@@](C)(O)C(F)(F)F)CC[C@@H]1N(C)C(=O)c1ccc(C(F)(F)F)cc1F` [Compound A47, 2-Fluoro-N-methyl-N-[(3R,4S)-3-methyl-1-[(2R)-3,3,3-trifluoro-2-hydroxy-2-methylpropanoyl]piperidin-4-yl]-4-(trifluoromethyl)benzamide], the Kd on human PDHK2 (12-407) worked out at 35 nM. The IC50 was determined as 190 nM in experiment [1] and 230 nM at PDHK2.

In the case of `C[C@@H]1CN(C(=O)[C@@](C)(O)C(F)(F)F)CC[C@@H]1N(C)C(=O)c1ccc(F)cc1Cl` [Compound A50, 2-Chloro-4-fluoro-N-methyl-N-[(3R,4S)-3-methyl-1-[(2R)-3,3,3-trifluoro-2-hydroxy-2-methylpropanoyl]piperidin-4-yl]benzamide], on human PDHK2 (12-407), the Kd was found to be 13 nM. Also, the results for the IC50 (in experiment [1]; at PDHK2) were 61 nM and 150 nM, respectively.

As for `C[C@@H]1CN(C(=O)[C@@](C)(O)C(F)(F)F)CC[C@@H]1N(C)C(=O)c1ccc(F)cn1` [Compound A53, 5-Fluoro-N-methyl-N-[(3R,4S)-3-methyl-1-[(2R)-3,3,3-trifluoro-2-hydroxy-2-methylpropanoyl]piperidin-4-yl]pyridine-2-carboxamide], the Kd at human PDHK2 (12-407) amounted to 51 nM. Also, the IC50 worked out at 340 nM in experiment [1] and 410 nM at PDHK2.

For `C[C@@H]1CN(C(=O)[C@@](C)(O)C(F)(F)F)CC[C@@H]1N(C)C(=O)c1cnn(C)c1` [Compound A56, N,1-Dimethyl-N-[(3R,4S)-3-methyl-1-[(2R)-3,3,3-trifluoro-2-hydroxy-2-methylpropanoyl]piperidin-4-yl]-1H-pyrazole-4-carboxamide], the dissociation constant (Kd) on human PDHK2 (12-407) stood at 130 nM. For the same compound, the 50% inhibitory concentration (IC50) in experiment [1] came out at 910 nM; at PDHK2 it was 230 nM.

Regarding `C[C@@H]1CN(C(=O)[C@@](C)(O)C(F)(F)F)CC[C@@H]1N(C)C(=O)c1ccc(Cl)cc1F` [Compound A59, 4-Chloro-2-fluoro-N-methyl-N-[(3R,4S)-3-methyl-1-[(2R)-3,3,3-trifluoro-2-hydroxy-2-methylpropanoyl]piperidin-4-yl]benzamide], at human PDHK2 (12-407), the dissociation constant (Kd) stood at 20 nM. Besides, the results for the half-maximal inhibitory concentration (IC50) (in experiment [1]; at PDHK2) were 53 nM and 98 nM, respectively.

For `C[C@@H]1CN(C(=O)[C@@](C)(O)C(F)(F)F)CC[C@@H]1N(C)C(=O)c1ccc(C(F)(F)F)cc1` [Compound A62, N-Methyl-N-[(3R,4S)-3-methyl-1-[(2R)-3,3,3-trifluoro-2-hydroxy-2-methylpropanoyl]piperidin-4-yl]-4-(trifluoromethyl)benzamide], the Kd at human PDHK2 (12-407) worked out at 44 nM. Also, the IC50 (in experiment [1]; at PDHK2) was 290 nM in each case.

On to `CCN(C(=O)c1ccc(C)cc1F)C1CCN(C(=O)[C@@](C)(O)C(F)(F)F)CC1` [Compound A64, N-Ethyl-2-fluoro-4-methyl-N-[1-((R)-3,3,3-trifluoro-2-hydroxy-2-methyl-propionyl)-piperidin-4-yl]-benzamide], for which the Kd on human PDHK2 (12-407) worked out at 69 nM. Also, the IC50 was determined as 310 nM in experiment [1] and 410 nM at PDHK2.

In the case of `Cc1ccc(C(=O)N(C(C)C)C2CCN(C(=O)[C@@](C)(O)C(F)(F)F)CC2)c(F)c1` [Compound A65, 2-Fluoro-N-isopropyl-4-methyl-N-[1-((R)-3,3,3-trifluoro-2-hydroxy-2-methyl-propionyl)-piperidin-4-yl]-benzamide], the equilibrium dissociation constant (Kd) on human PDHK2 (12-407) was 140 nM. In addition, the results for the IC50 (in experiment [1]; at PDHK2) were 590 nM and 1300 nM, respectively.

For the origin of these results see US10428024B2, “Piperidinyl derivatives” (MERCK PATENT GMBH, priority 2016, dated 2019).
